Laboratory results reported in PMC6312359, “Diisopropylphenyl-imidazole (DII): A new compound that exerts anthelmintic activity through novel molecular mechanisms” (PLoS Neglected Tropical Diseases, 2018).
Entries after “also recorded” stand apart in the source; their conditions may differ.

Columns and labels:
C. elegans [1] = experiment: Body length measurements; format: in vivo, Caenorhabditis elegans; conditions: 600 μM, 2 h
Description: Vehicle (0.75% DMSO) was used as a control. After 2 h, images were acquired and body length was measured using FIJI-ImageJ software. At least three independent experiments were analyzed.

C. elegans [2] = experiment: Larvicidal activity assays
Description: Three concentrations of drugs were used (100, 300 and 600 μM) and each concentration was repeated in triplicate. After 24, 48 and 72 h alive worms were scored and the results were expressed as the percentage of living worms related to the initial number of L1 animals. This experiment was independently repeated three times.

[3] = test system: C. elegans mutant strains; experiment: DII nematicidal effect on mutant strains; format: in vivo, Caenorhabditis elegans
Description: To evaluate DII nematicidal effects on mutant strains two different conditions were tested: i) ~40 L4s were exposed to DII (600 μM) in NGM plates and survival was scored at 4, 8, 24, 48 and 72 h, ii) ~40 L4s were exposed to 50 μM for 96 h and survival was subsequently scored. […] At least three independent experiments were analyzed.

E. coli OP50 = experiment: OP50 growth in screening wells (qualitative); format: cell-based, Escherichia coli; conditions: 150 μg/ml, qualitative observation
Excerpt: During the screening assays, we qualitatively noticed that OP50 growth was inhibited in wells containing MI. This effect was not observed with DII. To quantify this observation, we determined minimum inhibitory concentration (MIC) and minimum bactericidal concentration (MBC) of both compounds in E. coli cultures (Fig 2A). […] Similar values were obtained when we performed these assays on S. aureus, a Gram-positive bacteria (Fig 2A). […] As we are here screening for specific anthelmintic activity, we restricted our further analysis to compounds that appear to exert nematicidal action without obvious lethal effects on other organisms. Therefore, we focused our studies only on DII, relegating the evaluation of MI as a potential anthelmintic drug.

C. elegans [4] = experiment: Worm cut preparation paralysis; format: in vivo, Caenorhabditis elegans; conditions: 10 min; DII 600 μM, levamisole 10 μM; listed as DII
Description: Cutworm assays were performed as previously described with slight modifications. Briefly, synchronized young adult animals were mounted in a glass microscope slide containing Artificial Perienteric Fluid (APF) (67 mM NaCl, 67 mM NaCH3COOH, 3 mM KCl, 15.7 mM MgCl2, 3 mM CaCl2 and 5 mM Tris, pH 7.6). 10 animals were severed between the middle and tail, approximately two-thirds from the anterior end. Worms were subsequently transferred to a multi-well plate containing APF or drug-APF and paralysis was evaluated after 10 minutes. All experiments were performed at least three times.

C. elegans [5] = experiment: Egg-laying assays; format: in vivo, Caenorhabditis elegans; conditions: gravid worms
Description: Age-synchronized gravid worms were transferred to solid NGM plates containing different drug concentrations (100–300 μM). Each concentration was evaluated in triplicate and DMSO was used as a control. After 1 h, the number of laid eggs per worm was counted. This experiment was independently repeated three times.

C. elegans [6] = experiment: Lethality assays, dose-dependent, wild-type L4; format: in vivo, Caenorhabditis elegans; conditions: for LC50: Caenorhabditis elegans, L4 wild-type
Description: Dose-dependent lethality was quantified by exposing 40 L4s to DII (0–1000 μM) dissolved in solid medium for 8 and 24 h at 20°C. For survival to 96 h of DII exposure the temperature used was 13°C to avoid food depletion.

C. elegans [7] = experiment: Pharyngeal pumping; format: in vivo, Caenorhabditis elegans; conditions: wild-type and unc-29 young adults, two hours of exposure; listed as DII
Description: Supplementary file pntd.0007021.s006.tif: S6 Fig DII effects on pharyngeal pumping. Wild-type and unc-29 young adult worms (24 h past L4) were transferred to bacteria-seeded NGM plates containing different DII concentrations. After two hours of DII exposure, the number of contractions in the terminal bulb of the pharynx (pumps per minute) was counted using a stereomicroscope at 50x magnification. […] Bars represent the mean ± SEM from n = 20 animals per condition. Statistical differences compared to the non-treated condition (0 μM DII) within the same strain (ns: no statistically significant p>0.05, ***p<0.001). (TIF) Click here for additional data file.

HEK-293 cells = experiment: Human cell toxicity, propidium iodide staining; format: cell-based
Description: HEK-293 cells were cultured in DMEM medium (Gibco, USA) containing 10% fetal bovine serum (FBS) (Gibco, USA) and penicillin/streptomycin (Gibco, USA) at 37°C in an atmosphere containing 5% CO2. Before DII exposure, cells were dissociated using trypsin-EDTA and seeded in 96 multiwell plates at a density of 1x10^4 cells/ml. Cells were resuspended in fresh medium and different drug concentrations were subsequently added. After 8 h of incubation with 0, 200 and 600 μM of DII or 96 h of incubation with 0 and 100 μM of DII, cells were washed 3 times with PBS and propidium iodide (PI, final concentration 50 μg/ml) was added to stain dead cells. PI incubation was performed for 10 min in the dark at room temperature. DMSO (0–0.7%) and chloroquine (50–200 μM) were used as vehicle and positive controls, respectively. Images were acquired with a Nikon Eclipse TE 2000 fluorescence microscope. The number of stained cells was analyzed manually. At least 3 independent experiments were analyzed.

C. elegans [8] = experiment: Toxicity at early developmental stages (eggs, hatching, developmental rate); format: in vivo, Caenorhabditis elegans
Description: Briefly, gravid worms were collected and exposed to an alkaline hypochlorite solution (0.5 M NaOH and 1% NaOCl) to destroy adult worm tissues (eggs are resistant to bleach due to their chitin eggshell). Eggs were subsequently isolated with a sterile 60% sucrose solution and seeded on 35 mm NGM plates containing DII (100, 300 and 600 μM) or DMSO as a control. Hatched animals were quantified after 48 h. The results were expressed as follows: Number of living animals x 100/ Total number of eggs seeded. This experiment was independently repeated three times.
For ovicidal assessment, isolated eggs were seeded in NGM plates containing DII (600 μM) and video-recorded for 12 h. An egg was considered as non-viable if no hatching was observed during the recorded time.
The number of animals at different developmental stages (L1-L3, L4, and adults) was counted at 24, 48 and 72 h. The results were expressed as the number of animals at a given stage x 100/ Total number of living worms at that time point. This experiment was independently repeated three times.

[9] = 600 μM, short exposure times, no difference after 48 h
[10] = eggs exposed to 600 μM, 24, 48 and 72 h

CC(C)c1cccc(C(C)C)c1-n1ccnc1 [Compound 11]
body length (C. elegans [1]): no significant changes
larvicidal effect on unc-29 null mutant larvae (C. elegans [2]; 600 μM): as sensitive to the larvicidal effects of DII as the wild-type strain
larvicidal effect on unc-38, unc-63, lev-8 and lev-1 larvae (C. elegans [2]; 600 μM, 24, 48 and 72 h): sensitive to DII
larval viability, wild-type L1 (C. elegans [2]; 100, 300 and 600 μM, 24, 48 and 72 h): significant decrease
survival of unc-29 null mutant strain, long exposure ([3]; 50 μM, 96 h): resistant
survival of lev-8 mutants vs wild-type ([3]; 600 μM, 4-72 h): as sensitive to DII as the wild-type
survival of unc-63 mutants vs wild-type ([3]; 600 μM, 4-72 h): as sensitive to DII as the wild-type
survival of lev-1 mutants vs wild-type [3, 9]: slightly resistant
survival of unc-38 mutants vs wild-type [3, 9]: slightly resistant
survival of unc-29(e1072)I null mutants vs wild-type ([3]; CB1072, 600 μM, 4-72 h, listed as DII): extremely resistant
DII-mediated death in muscle unc-29 rescue strain OAR61 ([3]; myo-3::unc-29, unc-29(e1072)I, 600 μM): completely restores
OP50 growth in screening wells (E. coli OP50): not observed
paralysis in cut specimens (C. elegans [4]): unable to induce paralysis; also recorded: fail to produce significant paralysis
laid eggs in 1 h, fold more than controls (C. elegans [5]; 100 μM): did not produce an increase
reduction in the number of laid eggs (C. elegans [5]; 300 μM, 1 h): 3.6 fold
lethality (C. elegans [6]; 24 h of exposure, micromolar concentrations): 100%
LC50 (C. elegans [6]; 8 h of exposure): 448.5 ± 1.1 µM
LC50 (C. elegans [6]; 24 h of exposure): 342.3 ± 1 µM
LC50 (C. elegans [6]; 96 h of exposure, 13°C): 23.4 ± 1.06 µM
pharyngeal pumping rate (C. elegans [7]): inhibits the pharyngeal pumping; also recorded: decreases pharyngeal pumping rate
cell viability (HEK-293 cells; 0–600 μM, 8 h): do not affect viability on HEK-293 cells
cell viability (HEK-293 cells; up to 100 μM, 96 h): do not affect cell viability
eggs hatched (C. elegans [8]; 600 μM, within 12 hours, video recording): 100%
developmental rate, unc-29 null mutants (C. elegans [8]; [10]): delays the development
developmental rate, wild-type (C. elegans [8]; [10]): delays nematode development
number of viable animals relative to eggs seeded (C. elegans [8]; eggs exposed to 100, 300 and 600 μM, 48 h): significantly reduced
survivors that were adults (C. elegans [8]; eggs on DII-containing plates (600 μM), 72 h): less than 5%
